Experiment [1] has as its system reconstructed human epidermis (RHE)-models. Kind of experiment: Cytokine release in reconstituted human epidermis model after TNFα. Type of experiment: cell-based. The conditions noted are these: 0.75 ng/ml TNFα, extract 10 μg/ml in medium, 24 h and 48 h. The procedure: The bioactivity of the extract of Chromochloris zofingiensis (2022C) was tested in human epidermis equivalents by measuring cytokine secretion in response to TNFα treatment.
The extract was tested in a physiological relevant set-up represented by reconstructed human epidermis (RHE)-models (FIG. 2), (W. Pixelproduction, epiCS—CellSystems GmbH. [Online]. Available: https://cellsystems.de/cells-and-media/c/epics (accessed: Oct. 2 2020)), purchased from Cell Systems. epiCS RHE models are validated for the classification of compounds according to the OECD test guideline 431. […]
The secretion of relevant pro-inflammatory cytokines of RHE-models (from Cell Systems Biotechnology), were quantified after induction with 0.75 ng/ml TNFα and treatment with DMSO, WFA or the extract of Chromochloris zofingiensis in a concentration of 10 μg/ml in DMSO.
After culturing the keratinocyte cell layer in cell culture inserts (0.6 cm^2) under submerged conditions, the tissues were lifted to the air-liquid interphase to induce differentiation, epithelial stratification and cornification. […] The cytokine release was evaluated 24 h and 48 h after the TNFα treatment. The secretion of the cytokines IL-1ra, RANTES, IL-1α, GM-CSF, TSLP, IP-10, IL-18, IL-6, IL-8, IL-10, MCP-1, IL-1β, TNFα and INF-β was measured. […]

The target of the next experiment is T1, IKKβ Kinase (Homo sapiens, UniProt O14920).
T1 construct: made in house; host or cells: HEK 293T cells (transient transfection, anti-HA immunoprecipitation)
T1 sequence (O14920 1-756): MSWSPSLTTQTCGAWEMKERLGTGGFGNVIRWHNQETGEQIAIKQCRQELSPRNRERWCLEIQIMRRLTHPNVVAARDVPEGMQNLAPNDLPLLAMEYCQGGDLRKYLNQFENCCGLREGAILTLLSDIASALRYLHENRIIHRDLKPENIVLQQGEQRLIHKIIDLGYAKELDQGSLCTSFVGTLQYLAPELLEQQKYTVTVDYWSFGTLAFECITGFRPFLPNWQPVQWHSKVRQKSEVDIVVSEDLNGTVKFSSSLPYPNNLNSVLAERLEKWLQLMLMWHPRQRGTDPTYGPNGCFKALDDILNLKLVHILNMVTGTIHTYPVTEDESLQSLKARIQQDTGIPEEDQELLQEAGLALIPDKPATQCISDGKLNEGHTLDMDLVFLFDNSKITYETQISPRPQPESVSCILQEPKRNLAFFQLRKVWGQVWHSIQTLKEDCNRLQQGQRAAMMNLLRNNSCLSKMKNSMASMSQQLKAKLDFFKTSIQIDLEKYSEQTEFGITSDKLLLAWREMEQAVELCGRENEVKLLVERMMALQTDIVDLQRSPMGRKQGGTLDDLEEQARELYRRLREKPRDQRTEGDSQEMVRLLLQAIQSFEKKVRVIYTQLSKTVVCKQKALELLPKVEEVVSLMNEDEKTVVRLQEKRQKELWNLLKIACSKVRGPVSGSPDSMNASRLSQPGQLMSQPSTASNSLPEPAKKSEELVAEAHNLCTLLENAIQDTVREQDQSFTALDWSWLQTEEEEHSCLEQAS
Put plainly: In vitro immunoprecipitation IKKβ kinase assay with IκBα as substrate (autoradiography). Type of experiment: biochemical. The conditions noted are these: 1.6, 2.8 and 6% vs DMSO control; FIG. 9. The procedure: The IKK complex subunit IKKβ is responsible for the phosphorylation of IκBα and it's targeting for degradation upon TNFα induction. Therefore, it has been investigated whether the extracts inhibit IKKβ. […] The kinase assay was based on quantifying the activity of the kinase IKKβ via autoradiography.
Specifically, HEK 293T cells were transfected with the HA-IKKβ construct. Cells were washed with ice-cold phosphate-buffered saline (PBS) and extracted with lysis buffer containing 50 mM HEPES (pH 7.5), 150 mM NaCl, 1% (vol/vol) Nonidet P-40, 2 mM EDTA, 50 mM sodium fluoride, 10 mM sodium pyrophosphate, 1 mM sodium orthovanadate, 50 μg of leupeptin (Boehringer Mannheim)/ml, 0.5% aprotinin (Sigma), 1 mM phenylmethylsulphonyl fluoride (Sigma), and 3 mM benzamidine (Sigma). 300 ng of total protein were immunoprecipitated with 2 μg of anti-HA antibodies and immune complexes were collected using protein A-Sepharose beads (Amersham Pharmacia Biotech). Immune complexes were washed three times with lysis buffer followed by a single wash with high salt buffer (500 mM NaCl) and kinase assay buffer (50 mM HEPES [pH 7.5], 10 mM MgCl2, 1 mM dithiothreitol, 10 mM β-glycerophosphate). […] Samples were subjected to 10% SDS-PAGE, and the amount of ^32P incorporated into the IKKβ and IκBα proteins was assessed by autoradiography (FIG. 4). […]

Consider `CC1=C(CO)C(=O)O[C@@H]([C@@H](C)[C@H]2CC[C@H]3[C@@H]4C[C@H]5O[C@]56[C@@H](O)C=CC(=O)[C@]6(C)[C@H]4CC[C@]23C)C1` [WFA, Withaferin A], for which the “release of IL-10, MCP-1, IP-10 and RANTES” value in experiment [1] is listed as “substantial decrease”.

On to “diacylglyceryl-N,N,N-trimethylhomoserine [DGTS]”, for which the “direct inhibition of the IKKβ kinase” value on IKKβ Kinase is listed as “no inhibition”.

These data come from patent US20250319145A1, “EXTRACT WITH ANTI-INFLAMMATORY EFFECT” (Medizinische Universitat Innsbruck, priority 2021, published 2025).
